Test results from ChEMBL document CHEMBL1122790, “Novel opiates and antagonists. 6. 7-Alkyl-6,7-didehydromorphinans” (1984).
Active and inactive are the calls of the source. The rule behind the calls is not given here.

Legend:
Mus musculus [1] = experiment: Analgesic activity in the mouse acetic acid writhing test following s.c. administration.; assay type: functional; settings: sc
Rattus norvegicus [2] = experiment: Compound was evaluated for its analgesic activity by Rat-tail-flick test after subcutaneous administration at a dose 10 mg/kg; Ia= inactive; assay type: functional, organism-based; design: dose 10 mg/kg
Rattus norvegicus [3] = experiment: Compound was evaluated for its analgesic activity by Rat-tail-flick test after subcutaneous administration; assay type: functional; settings: for ED50: sc
Mus musculus [4] = experiment: Compound was evaluated for its analgesic activity by mouse acetic acid writhing test after subcutaneous administration at a dose 10 mg/kg; Ia= inactive; assay type: functional, organism-based; design: dose 10 mg/kg
Mus musculus [5] = experiment: Compound was evaluated for its analgesic activity by mouse acetic acid writhing test after subcutaneous administration at a dose 10 mg/kg; assay type: functional; settings: sc

## COc1ccc2c3c1OC1C=C(C=O)CC4C(C2)N(C)CCC314 (stereo not drawn)
Mus musculus [1]
  ED50: 1.45 mg/kg
Rattus norvegicus [2]
  ED50: inactive

## CCCC[C@@H](O)C1=CCC23CCN(C)C(Cc4ccc(OC)cc42)[C@H]3C1 (stereo partly drawn)
Mus musculus [1]
  ED50: 0.0062 mg/kg
Rattus norvegicus [3]
  ED50: 1.8 mg/kg

## CCCCNCC1=CC2Oc3c(OC)ccc4c3C23CCN(C)C(C4)C3C1 (stereo not drawn)
Mus musculus [4]
  ED50: inactive

## COc1ccc2c(c1)C13CC=C(C=O)C[C@@H]1C(C2)N(C)CC3 (stereo partly drawn) [listing 1 of 2 here]
Rattus norvegicus [2]
  ED50: inactive

## CCCCC(O)C1=CC2Oc3c(OC)ccc4c3C23CCN(C)C(C4)C3C1 (stereo not drawn)
Mus musculus [1]
  ED50: 3.13 mg/kg
Rattus norvegicus [2]
  ED50: inactive

## COc1ccc2c3c1OC1C=C(C(C)O)CC4C(C2)N(C)CCC314 (stereo not drawn)
Mus musculus [4]
  ED50: inactive
Rattus norvegicus [2]
  ED50: inactive

## CCCC[C@H](O)C1=CCC23CCN(C)C(Cc4ccc(OC)cc42)[C@H]3C1 (stereo partly drawn)
Mus musculus [1]
  ED50: 0.0058 mg/kg
Rattus norvegicus [3]
  ED50: 0.3 mg/kg

## COc1ccc2c(c1)C13CCN(C)C(C2)C1CCC(=O)C3 (stereo not drawn)
Rattus norvegicus [3]
  ED50: > 20 mg/kg

## CCCCC(O)C1=CCC23CCN(CC4CC4)C(Cc4ccc(OC)cc42)[C@H]3C1 (stereo partly drawn)
Mus musculus [1]
  ED50: 0.21 mg/kg

## COc1ccc2c3c1OC1C(=O)/C(=C/N(C)C)CC4C(C2)N(C)CCC314 (stereo not drawn)
Mus musculus [4]
  ED50: inactive
Rattus norvegicus [2]
  ED50: inactive

## COc1ccc2c3c1OC1C=C([C@H](O)CCCc4ccccc4)CC4C(C2)N(C)CCC314 (stereo partly drawn)
Mus musculus [1]
  ED50: 0.72 mg/kg

## COc1ccc2c3c1O[C@H]1C(=O)CC[C@H]4[C@@H](C2)N(C)CC[C@]314.O=C(O)C(O)C(O)C(=O)O
Mus musculus [1]
  ED50: 1.06 mg/kg

## CCCCC(O)C1=CC2Oc3c(OC)ccc4c3C23CCN(C)C(C4)C3(O)C1.Cl (stereo not drawn)
Mus musculus [1]
  ED50: 9.8 mg/kg

## CCCCC(C)(O)C1=CCC23CCN(C)C(Cc4ccc(OC)cc42)C3C1 (stereo not drawn)
Mus musculus [4]
  ED50: inactive
Rattus norvegicus [2]
  ED50: inactive

## COc1ccc2c3c1OC1C=C(C=O)CC4(O)C(C2)N(C)CCC314 (stereo not drawn)
Mus musculus [1]
  ED50: 3.6 mg/kg

## CCCCC(O)C1=CCC23CCN(C)C(Cc4ccc(OC)cc42)[C@@H]3C1 (stereo partly drawn)
Mus musculus [4]
  ED50: inactive

## CN1CC[C@]23c4c5ccc(O)c4O[C@H]2C(=O)CC[C@H]3[C@H]1C5.Cl [HYDROMORPHONE HYDROCHLORIDE]
Mus musculus [1]
  ED50: 0.08 mg/kg

## COc1ccc2c(c1)C13CCN(C)C(C2)[C@H]1CCC(=O)C3 (stereo partly drawn)
Mus musculus [1]
  ED50: 0.49 mg/kg
Rattus norvegicus [3]
  ED50: 0.66 mg/kg

## COc1ccc2c(c1)C13CC=C(C=O)C[C@@H]1C(C2)N(C)CC3.Cl (stereo partly drawn)
Mus musculus [5]
  ED50: 4.55 mg/kg

## CCCCC(=O)C1=CCC23CCN(C)C(Cc4ccc(O)cc42)[C@H]3C1 (stereo partly drawn)
Mus musculus [1]
  ED50: 0.046 mg/kg
Rattus norvegicus [3]
  ED50: 0.0135 mg/kg

## CN1CC[C@]23c4c5ccc(O)c4O[C@H]2[C@@H](O)C=C[C@H]3[C@H]1C5.CN1CC[C@]23c4c5ccc(O)c4O[C@H]2[C@@H](O)C=C[C@H]3[C@H]1C5.O=S(=O)(O)O
Mus musculus [1]
  ED50: 0.79 mg/kg
Rattus norvegicus [3]
  ED50: 7.32 mg/kg

## CC(=O)C1=CCC23CCN(C)C(Cc4ccc(O)cc42)C3C1 (stereo not drawn)
Mus musculus [1]
  ED50: > 10 mg/kg
Rattus norvegicus [3]
  ED50: > 10 mg/kg

## COc1ccc2c(c1)C13CCN(CC4CC4)C(C2)[C@H]1CCC(=O)C3 (stereo partly drawn)
Mus musculus [1]
  ED50: > 10 mg/kg
Rattus norvegicus [3]
  AD50: 1.3 mg/kg

## CCCCS/C=C1\CC2C3Cc4ccc(OC)c5c4C2(CCN3C)C(O5)C1=O (stereo not drawn)
Mus musculus [1]
  ED50: > 10 mg/kg
Rattus norvegicus [3]
  ED50: > 10 mg/kg

## COc1ccc2c(c1)C13CC=C(C=O)C[C@@H]1C(C2)N(C)CC3 (stereo partly drawn) [listing 2 of 2 here]
Mus musculus [1]
  ED50: 0.28 mg/kg

## COc1ccc2c3c1OC1C=C(C(C)=O)CC4C(C2)N(C)CCC314 (stereo not drawn)
Mus musculus [4]
  ED50: inactive
Rattus norvegicus [2]
  ED50: inactive

## CCCCC(C)(O)C1=CCC23CCN(C)C(Cc4ccc(OC)cc42)[C@H]3C1 (stereo partly drawn)
Mus musculus [1]
  ED50: 0.0125 mg/kg
Rattus norvegicus [3]
  ED50: 3.2 mg/kg

## CCCCC(C)(O)C1=CCC23CCN(C)C(Cc4ccc(O)cc42)C3C1 (stereo not drawn)
Mus musculus [4]
  ED50: inactive

## COc1ccc2c3c1O[C@H]1C(=O)CC[C@@]4(O)[C@@H](C2)N(C)CC[C@]314.Cl [OXYCODONE HYDROCHLORIDE]
Mus musculus [1]
  ED50: 0.3 mg/kg

## CCCCC(=O)C1=CCC23CCN(C)C(Cc4ccc(OC)cc42)[C@H]3C1.Cl (stereo partly drawn)
Mus musculus [1]
  ED50: 0.82 mg/kg

## COc1ccc2c3c1OC1C=C([C@@H](O)CCCc4ccccc4)CC4C(C2)N(C)CCC314 (stereo partly drawn)
Mus musculus [1]
  ED50: 1.6 mg/kg

## CCCCC(=O)C1=CC2Oc3c(OC)ccc4c3C23CCN(C)C(C4)C3C1.Cl (stereo not drawn)
Mus musculus [4]
  ED50: inactive
Rattus norvegicus [3]
  ED50: > 10 mg/kg
